# According to US20250296938A1, “Compounds that Interact with the Ras Superfamily for the Treatment of Cancers, Inflammatory Diseases, Rasopathies, and Fibrotic Disease” (SHY Therapeutics, LLC, priority 2018, published 2025):
# Where two headings read alike, the source gives them in different places.
# Tests used:
# Assay in all cases: Ras GTP binding domain inhibition assay (Cy3-GTP/Cy5-GTP competition)
# KRas Q61H mutant = system: KRas Q61H mutant; design: species or system human; settings: 20 μM
# In short: (§1)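 Compounds tested at 20 μM or in serial dilution for IC50 against nickel-captured His-tagged GTPase, 3 hours at room temperature, with or without His-Sos GEF added for last hour. Fluorescent GTP then added at 100 nM for 45 minutes; wells washed, bound label measured by fluorescence.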
# KRas wild type = system: KRas wild type; design: species or system human; settings: 20 μM; for KRas wild type: % inh.: without SOS; for KRas wild type % inh.: without SOS (Table 7A)
# In short: as §1
# KRas G12C mutant = system: KRas G12C mutant; design: species or system human; settings: 20 μM
# In short: as §1
# KRas G12D mutant = molecular target: T1, KRas G12D mutant (Homo sapiens, UniProt P01116, G12D); settings: 20 μM
# T1 construct: fused on or other part: His tag, used for capture on nickel-coated plates
# In short: as §1
# [1] = with SOS, read-out: KRas G-12D mutant + SOS: % inh.
# [2] = without SOS, read-out: KRas G12D mutant: % inh.
# [3] = with SOS (Table 7A), read-out: KRas G12D mutant + SOS: % inh.
# [4] = without SOS (Table 7A), read-out: KRas G12D mutant: % inh.
Compound,KRas Q61H mutant + SOS: % inh. (KRas Q61H mutant; with SOS),KRas Q61H mutant: % inh. (KRas Q61H mutant; without SOS),KRas wild type + SOS: % inh. (KRas wild type; with SOS),KRas wild type: % inh. (KRas wild type),KRas G12C mutant + SOS: % inh. (KRas G12C mutant; with SOS),KRas G12C mutant: % inh. (KRas G12C mutant; without SOS),inhibition at 20 µM (KRas G12D mutant; [1]) [%],inhibition at 20 µM (KRas G12D mutant; [2]) [%],KRas Q61H mutant + SOS: % inh. (KRas Q61H mutant; with SOS (Table 7A)),KRas Q61H mutant: % inh. (KRas Q61H mutant; without SOS (Table 7A)),KRas wild type + SOS: % inh. (KRas wild type; with SOS (Table 7A)),KRas wild type % inh. (KRas wild type),KRas G12C mutant + SOS: % inh. (KRas G12C mutant; with SOS (Table 7A)),KRas G12C mutant: % inh. (KRas G12C mutant; without SOS (Table 7A)),inhibition at 20 µM (KRas G12D mutant; [3]) [%],inhibition at 20 µM (KRas G12D mutant; [4]) [%]
COCCn1cc(Nc2nc(-c3ccccn3)nc(OC)c2OC)cn1 [drawing 793],A (1-25% inhibition),0 (0% inhibition),A (1-25% inhibition),0 (0% inhibition),A (1-25% inhibition),A (1-25% inhibition),1 to 25,1 to 25,,,,,,,,
Cc1cc(Cn2ccnc2-c2nc(O)c3scc(-c4ccccn4)c3n2)on1 [drawing 846],C (51-75% inhibition),B (26-50% inhibition),B (26-50% inhibition),C (51-75% inhibition),C (51-75% inhibition),B (26-50% inhibition),26 to 50,51 to 75,,,,,,,,
COCCNc1nc(-c2cn(C)cn2)nc2sc(-c3cccc(OC)c3Cl)c(-c3ccc(OC)cc3)c12 [drawing 797],D (76-100% inhibition),C (51-75% inhibition),D (76-100% inhibition),C (51-75% inhibition),D (76-100% inhibition),B (26-50% inhibition),26 to 50,26 to 50,,,,,,,,
COc1c(O)nc(-c2ccccn2)nc1Oc1ccc2ncccc2c1 [drawing 804],C (51-75% inhibition),C (51-75% inhibition),B (26-50% inhibition),C (51-75% inhibition),C (51-75% inhibition),C (51-75% inhibition),26 to 50,51 to 75,,,,,,,,
COc1nscc1-c1sc2nc(-c3nccn3C)nc(N3CCC(OC)C3)c2c1-c1ccccc1.Cl (centres unmarked),D (76-100% inhibition),C (51-75% inhibition),D (76-100% inhibition),B (26-50% inhibition),D (76-100% inhibition),B (26-50% inhibition),51 to 75,26 to 50,,,,,,,,
COc1ncccc1-c1sc2nc(-c3nccn3C)nc(N3CCC(OC)C3)c2c1-c1ccccc1.Cl (centres unmarked),C (51-75% inhibition),C (51-75% inhibition),C (51-75% inhibition),C (51-75% inhibition),C (51-75% inhibition),C (51-75% inhibition),51 to 75,51 to 75,,,,,,,,
COCCn1cc(-c2sc3nc(-c4nccn4C)nc(N4CCC(OC)C4)c3c2-c2ccccc2)cn1.Cl (centres unmarked),C (51-75% inhibition),B (26-50% inhibition),C (51-75% inhibition),D (76-100% inhibition),D (76-100% inhibition),D (76-100% inhibition),51 to 75,51 to 75,,,,,,,,
CC(C)NC(=O)c1nc(-c2nccn2C)nc(O)c1O [drawing 830],C (51-75% inhibition),C (51-75% inhibition),B (26-50% inhibition),C (51-75% inhibition),B (26-50% inhibition),C (51-75% inhibition),26 to 50,51 to 75,,,,,,,,
COCCNc1nc(-c2cn(C)cn2)nc2sc(-c3cc(OC)ccc3Cl)c(-c3ccc(OC)cc3)c12 [drawing 795],D (76-100% inhibition),B (26-50% inhibition),D (76-100% inhibition),B (26-50% inhibition),D (76-100% inhibition),B (26-50% inhibition),26 to 50,26 to 50,,,,,,,,
Cn1ccnc1-c1nc(O)c(O)c(C(=O)NC2CCC2)n1 [drawing 825],C (51-75% inhibition),C (51-75% inhibition),B (26-50% inhibition),C (51-75% inhibition),B (26-50% inhibition),C (51-75% inhibition),26 to 50,51 to 75,,,,,,,,

# Other lines, results leading:
KRas Q61H mutant + SOS: % inh. (KRas Q61H mutant; with SOS),KRas Q61H mutant: % inh. (KRas Q61H mutant; without SOS),KRas wild type + SOS: % inh. (KRas wild type; with SOS),KRas wild type: % inh. (KRas wild type),KRas G12C mutant + SOS: % inh. (KRas G12C mutant; with SOS),KRas G12C mutant: % inh. (KRas G12C mutant; without SOS),inhibition at 20 µM (KRas G12D mutant; [1]) [%],inhibition at 20 µM (KRas G12D mutant; [2]) [%],KRas Q61H mutant + SOS: % inh. (KRas Q61H mutant; with SOS (Table 7A)),KRas Q61H mutant: % inh. (KRas Q61H mutant; without SOS (Table 7A)),KRas wild type + SOS: % inh. (KRas wild type; with SOS (Table 7A)),KRas wild type % inh. (KRas wild type),KRas G12C mutant + SOS: % inh. (KRas G12C mutant; with SOS (Table 7A)),KRas G12C mutant: % inh. (KRas G12C mutant; without SOS (Table 7A)),inhibition at 20 µM (KRas G12D mutant; [3]) [%],inhibition at 20 µM (KRas G12D mutant; [4]) [%],Compound
D (76-100% inhibition),B (26-50% inhibition),D (76-100% inhibition),B (26-50% inhibition),D (76-100% inhibition),C (51-75% inhibition),76 to 100,1 to 25,,,,,,,,,COCCNc1nc(-c2nccn2C)nc2sc(-c3cccc(OC)c3Cl)c(-c3ccccc3)c12 [drawing 872]
A (1-25% inhibition),A (1-25% inhibition),A (1-25% inhibition),A (1-25% inhibition),A (1-25% inhibition),0 (0% inhibition),1 to 25,0,,,,,,,,,COCC(C)Nc1nc(-c2nccn2C)nc2sc(-c3ccn(C)n3)c(-c3ccc(OC)cc3)c12 (centres unmarked) [drawing 869]
,,,,,,,,D (76-100% inhibition),C (51-75% inhibition),D (76-100% inhibition),C (51-75% inhibition),D (76-100% inhibition),B (26-50% inhibition),51 to 75,26 to 50,COc1cccc(-c2sc3nc(-c4nccn4C)nc(NC4CCC(OC)C4)c3c2-c2ccccc2)c1F (centres unmarked) [drawing 883]
B (26-50% inhibition),B (26-50% inhibition),B (26-50% inhibition),B (26-50% inhibition),A (1-25% inhibition),0 (0% inhibition),1 to 25,1 to 25,,,,,,,,,Cn1ccc(-c2sc3nc(-c4nccn4C)nc(NC4CCOCC4)c3c2-c2ccccc2)n1 [drawing 862]
C (51-75% inhibition),B (26-50% inhibition),B (26-50% inhibition),A (1-25% inhibition),B (26-50% inhibition),A (1-25% inhibition),1 to 25,1 to 25,,,,,,,,,COC1CCN(c2nc(-c3nccn3C)nc3sc(-c4ccn(C)n4)c(-c4ccccc4)c23)C1 (centres unmarked) [drawing 863]
,,,,,,,,0 (0% inhibition),A (1-25% inhibition),A (1-25% inhibition),A (1-25% inhibition),A (1-25% inhibition),A (1-25% inhibition),0,0,Cn1ccc(-c2sc3nc(-c4nccn4C)nc(N[C@@H]4CC[C@H](O)C4)c3c2-c2ccccc2)n1 (racemic) [drawing 909]
,,,,,,,,C (51-75% inhibition),D (76-100% inhibition),C (51-75% inhibition),C (51-75% inhibition),C (51-75% inhibition),C (51-75% inhibition),76 to 100,76 to 100,Cc1c(-c2ccn(C)n2)sc2nc(-c3nccn3C)nc(NCCCS(C)(=O)=O)c12 [drawing 916]
,,,,,,,,D (76-100% inhibition),B (26-50% inhibition),D (76-100% inhibition),B (26-50% inhibition),D (76-100% inhibition),B (26-50% inhibition),51 to 75,26 to 50,COC1CCC(Nc2nc(-c3nccn3C)nc3sc(-c4cccc5[nH]ncc45)c(C)c23)C1 (centres unmarked) [drawing 895]
,,,,,,,,D (76-100% inhibition),D (76-100% inhibition),D (76-100% inhibition),D (76-100% inhibition),D (76-100% inhibition),C (51-75% inhibition),51 to 75,51 to 75,CO[C@H]1CC[C@@H](Nc2nc(-c3nccn3C)nc3sc(-c4ccn(C(C)C)n4)c(-c4ccccc4)c23)C1 [drawing 912]
